In the NIST ThermoML archive (doi:10.1016/j.jct.2011.11.025):
± gives the expanded uncertainty stated by the source.

Assay: activity coefficient (dimensionless); of the first substance listed, at infinite dilution; xn = mol fraction of the nth substance listed
Conditions: Liquid, Chromatography, x1 = 0

Structure (SMILES) | activity coefficient (318.15 K) | activity coefficient (328.15 K) | activity coefficient (338.15 K) | activity coefficient (348.15 K) | activity coefficient (358.15 K) | activity coefficient (368.15 K)
C1COCCO1 [1,4-dioxane] + CCCCCCn1cc[n+](C)c1.N#C[B-](C#N)(C#N)C#N | 0.362 ± 0.035 | 0.381 ± 0.034 | 0.401 ± 0.034 | 0.419 ± 0.034 | 0.435 ± 0.033 | 0.454 ± 0.033
Cc1ccccc1 [toluene] + CCCCCCn1cc[n+](C)c1.N#C[B-](C#N)(C#N)C#N | 0.975 ± 0.025 | 0.993 ± 0.025 | 1.02 ± 0.03 | 1.04 ± 0.03 | 1.06 ± 0.03 | 1.08 ± 0.03
CCOCC [diethyl ether] + CCCCCCn1cc[n+](C)c1.N#C[B-](C#N)(C#N)C#N | 1.59 ± 0.06 | 1.62 ± 0.07 | 1.64 ± 0.07 | 1.68 ± 0.07 | 1.71 ± 0.07 | 1.76 ± 0.07
COC(C)(C)C [2-methoxy-2-methylpropane] + CCCCCCn1cc[n+](C)c1.N#C[B-](C#N)(C#N)C#N | 1.62 ± 0.07 | 1.66 ± 0.07 | 1.71 ± 0.07 | 1.76 ± 0.07 | 1.81 ± 0.08 | 1.87 ± 0.08
CCC(C)O (configuration not stated) [butan-2-ol] + CCCCCCn1cc[n+](C)c1.N#C[B-](C#N)(C#N)C#N | 1.27 ± 0.04 | 1.17 ± 0.04 | 1.1 ± 0.1 | 1.03 ± 0.03 | 0.977 ± 0.025 | 0.938 ± 0.026
CCOC(C)(C)C [2-ethoxy-2-methylpropane] + CCCCCCn1cc[n+](C)c1.N#C[B-](C#N)(C#N)C#N | 3.51 ± 0.16 | 3.53 ± 0.16 | 3.53 ± 0.16 | 3.58 ± 0.16 | 3.61 ± 0.16 | 3.66 ± 0.17
CCC(=O)OC [methyl propanoate] + CCCCCCn1cc[n+](C)c1.N#C[B-](C#N)(C#N)C#N | 0.609 ± 0.031 | 0.628 ± 0.031 | 0.648 ± 0.03 | 0.668 ± 0.03 | 0.685 ± 0.03 | 0.705 ± 0.029
C#CCCCC [1-hexyne] + CCCCCCn1cc[n+](C)c1.N#C[B-](C#N)(C#N)C#N | 2.17 ± 0.1 | 2.19 ± 0.1 | 2.2 ± 0.1 | 2.24 ± 0.1 | 2.26 ± 0.1 | 2.3 ± 0.1
CC(=O)O [acetic acid] + CCCCCCn1cc[n+](C)c1.N#C[B-](C#N)(C#N)C#N |  | 0.285 ± 0.036 | 0.298 ± 0.036 | 0.311 ± 0.035 | 0.323 ± 0.035 | 0.335 ± 0.035
CCCCO [butan-1-ol] + CCCCCCn1cc[n+](C)c1.N#C[B-](C#N)(C#N)C#N | 1.43 ± 0.05 | 1.32 ± 0.05 | 1.22 ± 0.04 | 1.14 ± 0.03 | 1.07 ± 0.03 | 1.01 ± 0.03
C=CCCCCC [1-heptene] + CCCCCCn1cc[n+](C)c1.N#C[B-](C#N)(C#N)C#N | 8.39 ± 0.38 | 8.06 ± 0.37 | 7.79 ± 0.36 | 7.59 ± 0.35 | 7.37 ± 0.34 | 7.24 ± 0.33
CCCCCCCCC [nonane] + CCCCCCn1cc[n+](C)c1.N#C[B-](C#N)(C#N)C#N | 31.4 ± 1.5 | 28.8 ± 1.3 | 26.6 ± 1.2 | 24.9 ± 1.2 | 23.2 ± 1.1 | 21.9 ± 1
CCO [ethanol] + CCCCCCn1cc[n+](C)c1.N#C[B-](C#N)(C#N)C#N | 1.05 ± 0.03 | 0.978 ± 0.025 | 0.912 ± 0.026 | 0.855 ± 0.027 | 0.807 ± 0.028 | 0.761 ± 0.029
CCCCC [pentane] + CCCCCCn1cc[n+](C)c1.N#C[B-](C#N)(C#N)C#N | 8.63 ± 0.4 | 8.22 ± 0.38 | 7.85 ± 0.36 | 7.61 ± 0.35 | 7.33 ± 0.34 | 7.13 ± 0.33
CCCCCCC [heptane] + CCCCCCn1cc[n+](C)c1.N#C[B-](C#N)(C#N)C#N | 16.5 ± 0.8 | 15.4 ± 0.7 | 14.5 ± 0.7 | 13.7 ± 0.6 | 13 ± 0.6 | 12.4 ± 0.6
CC(C)CC(C)(C)C [2,2,4-trimethylpentane] + CCCCCCn1cc[n+](C)c1.N#C[B-](C#N)(C#N)C#N | 18.8 ± 0.9 | 17.6 ± 0.8 | 16.5 ± 0.8 | 15.7 ± 0.7 | 15 ± 0.7 | 14.3 ± 0.7
COC(C)=O [methyl ethanoate] + CCCCCCn1cc[n+](C)c1.N#C[B-](C#N)(C#N)C#N | 0.508 ± 0.032 | 0.521 ± 0.032 | 0.538 ± 0.032 | 0.55 ± 0.032 | 0.566 ± 0.032 | 0.586 ± 0.031
Cc1ccccc1C [1,2-dimethylbenzene] + CCCCCCn1cc[n+](C)c1.N#C[B-](C#N)(C#N)C#N | 1.19 ± 0.04 | 1.22 ± 0.04 | 1.24 ± 0.04 | 1.26 ± 0.04 | 1.28 ± 0.04 | 1.31 ± 0.05
